Experimental findings from patent publication US8283323B2, “Withanolide compounds as inhibitors of fibrosis and identification of molecular targets for anti-fibrotic drug development” (University of Kentucky Research Foundation, priority 2006, dated 2012) are described below.

Experiment [1] deals with transketolase (TKT). The experiment can be described thus: western blot with anti-mouse TKT antibody and immunohistochemical analysis of mouse eyes. The format is in vivo, mice. As to conditions: injured corneas; for TKT detected by anti-mouse TKT antibody on western blot (longer film exposure): WA 2.5 mg/kg/d or epoxomicin 2.0 mg/kg/d, not detected in vehicle. How it is done: (§1) To investigate the levels and timing of expression of TKT we performed time-course experiments using the angioinflammation corneal model of tissue repair. Groups of mice ([…]) were injured and treated every day with vehicle (Veh), 2.5 mg/kg/d WA or 2.0 mg/kg/d epoxomicin (20S proteasome inhibitor) and sacrificed on day 4 and 6 post-inflammation. In a similar experiment, mice were treated every day with vehicle or 2.5 mg/kg/d WA and sacrificed on days 3 and 5 post-injury. Equal amounts of protein from pooled samples of each group were subjected to immunoblotting or Coomassie blue staining after fractionation on 4-20% gradient polyacrylamide gels (BioRad).
(§2) The western blots of the corneal samples were re-probed with an anti-mouse TKT antibody. […] Because of the strong Ub-immunoreactivity of TKT in injured corneas, we speculate that this protein's N-terminal antigenic site is being masked by ubiquitination in the injury-related samples (the TKT antibody reacts with the N-terminal 20-amino acid portion of native TKT).
To investigate the localization of TKT, immunohistochemical analysis of mouse eyes was conducted. TKT expression is localized to the epithelium of uninjured mouse eyes, whereas TKT expression in corneas of 4 d vehicle-treated mice is almost undetectable.

Experiment [2] relates to ubiquitinated transketolase (70 kDa ubiquitinated protein). The experiment can be described thus: immunoblotting / Coomassie blue staining of corneal protein, angioinflammation corneal model: ubiquitinated transketolase. In kind it is in vivo, mice. On the procedure:
as §1, §2
For orientation: Immunoblotting shows a protein as a band on a membrane.

The test system of experiment [3] is cornea injured by 0.1 N sodium hydroxide (corneal opacity, neovascularization). The experiment can be described thus: alkali burn corneal injury model, digital images of corneas. Particulars: 2.5 mg/kg/d i.p. daily for 6 d after alkali burn, versus vehicle (DMSO). In kind it is in vivo, C57BL6 mice. How it is done: (§3) The corneas of C57BL6 mice under anesthesia were injured by application of 0.1 N sodium hydroxide and subsequently the epithelial cell layer from the cornea and limbus was removed by scraping. Withaferin A (WA) (2.5 mg/kg/d; 4 mice) or vehicle (DMSO; 4 mice) was provided daily thereafter by i.p. injection for 6 d. Digital images of the corneas were obtained to assess the extent of tissue pathology. […] These compelling results invoke the query whether WA targets the UPP in vivo. Mice (4 per group) were injured and treated for the first 4 days with a different dose of WA or vehicle daily by i.p. injection. On day 7, mice were sacrificed and corneal buttons were isolated from injured healing corneas; equal amounts of protein from each group were analyzed by western blotting. Uninjured fellow eyes from vehicle-treated mice served as controls.

Experiment [4] concerns native I-kappa-B-alpha. The experiment can be described thus: western blotting of corneal buttons from injured healing corneas: I-kappa-B-alpha. In kind it is in vivo, mice. Particulars: different doses i.p. daily for first 4 days, corneas taken day 7, western blot. How it is done:
as §3

Experiment [5] has as its system ubiquitin proteasome pathway (UPP). The experiment can be described thus: UPP functions in the alkali burn injury model of corneal angiofibrotic disease. In kind it is in vivo. An excerpt:
The abundant corneal protein tissue transketolase (TKT) is believed to play an important role in corneal homeostasis. TKT is also a target of the UPP and its reduced expression is believed to contribute to corneal fibrosis. In the present invention, targeting the UPP in injured tissue can redirect the fibrotic repair process to acquire regenerative healing. Withanolides and related compounds, such as withaferin A, withanolide D and ixocarpalactone, are small molecule inhibitors that have potent UPP-targeting activity. […] There is also a reduction in the levels of ubiquitinated transketolase (TKT), an abundant corneal protein implicated in fibrogenesis.

Experiment [6] relates to HO-1. The experiment can be described thus: western blotting of corneal buttons from injured healing corneas: HO-1. As to conditions: i.p. daily for first 4 days, corneas taken day 7, western blot. The format is in vivo, mice. How it is done: as §3

As to `CC1=C(CO)C(=O)O[C@@H]([C@@H](C)[C@H]2CC[C@H]3[C@@H]4C[C@H]5O[C@]56[C@@H](O)C=CC(=O)[C@]6(C)[C@H]4CC[C@]23C)C1` [WA, Withaferin A], in experiment [1] (4 d, compared with uninjured and vehicle-treated), the “TKT staining in cornea, immunohistochemical analysis” value is given as “present, although at levels lower than that of uninjured cornea”. Further, the “TKT detected by anti-mouse TKT antibody on western blot (longer film exposure)” value in experiment [1] is “presence of the TKT”. Besides, the “expression of 70 kDa ubiquitinated protein (UbTKT) in cornea, ubiquitin immunoblot” value in experiment [2] (2.5 mg/kg/d every day, injured corneas, versus vehicle) is “abundantly expressed in vehicle-treated mouse corneas compared to corneas from WA-treated mice”. The “levels of the 70 kDa protein by Coomassie blue staining” value in experiment [2] (uninjured, vehicle and WA-treated samples, 3-, 5-, 4- and 6-day time-points) is given as “not significantly altered”. Further, in experiment [3], the corneal opacity entry is recorded as “dramatically reduced” and the “neovascularization (growth of new blood vessels in cornea)” value was “dramatically reduced”. Also, in experiment [4], the “corneal expression of native I-kappa-B-alpha” value was “dose-dependently inhibits”. The UPP functions entry in experiment [5] was “potent downregulation”. Also, the “HO-1 expression in cornea” value in experiment [6] was “potently downregulated HO-1 expression to almost undetectable levels”.
In the case of `CC[C@H](C)[C@H](NC(=O)[C@H]([C@@H](C)CC)N(C)C(C)=O)C(=O)N[C@H](C(=O)N[C@@H](CC(C)C)C(=O)[C@@]1(C)CO1)[C@@H](C)O` [epoxomicin, reference compound], the “TKT detected by anti-mouse TKT antibody on western blot (longer film exposure)” value in experiment [1] is listed as “presence of the TKT”.
